Literature values in patent US20120040944A1 (APEX LABORATORIES PRIVATE LIMITED, priority 2009, published 2012).

What was measured:
[1] = not given; remark: listed apart in the source
[2] = target: T1, CYP3A4 isozyme (Homo sapiens, UniProt P08684); conditions: liver
T1 construct: host or cells: liver
T1 sequence (P08684 whole entry): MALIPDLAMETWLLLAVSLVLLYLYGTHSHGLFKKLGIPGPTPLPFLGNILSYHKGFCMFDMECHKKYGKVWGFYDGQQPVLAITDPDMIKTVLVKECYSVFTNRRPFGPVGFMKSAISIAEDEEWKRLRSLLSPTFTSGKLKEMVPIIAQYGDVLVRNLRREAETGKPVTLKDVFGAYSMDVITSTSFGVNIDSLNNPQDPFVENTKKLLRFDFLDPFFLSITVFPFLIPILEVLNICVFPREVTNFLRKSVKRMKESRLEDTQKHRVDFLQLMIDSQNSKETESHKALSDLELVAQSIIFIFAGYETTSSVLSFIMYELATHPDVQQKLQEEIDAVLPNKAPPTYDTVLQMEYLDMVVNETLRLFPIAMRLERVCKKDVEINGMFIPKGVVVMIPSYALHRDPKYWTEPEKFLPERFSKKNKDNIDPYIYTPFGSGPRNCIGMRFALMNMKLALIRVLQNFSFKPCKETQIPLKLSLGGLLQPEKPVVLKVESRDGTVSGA

C[C@@H]1C[C@H]2[C@@H]3CCC4=CC(=O)C=C[C@]4(C)[C@@]3(Cl)[C@@H](O)C[C@]2(C)[C@@]1(OC(=O)c1ccco1)C(=O)CCl [Mometasone Furoate, 9α,21-dichloro-11β,17-dihydroxy-16α-methylpregna-1,4-diene-3,20-dione 17-(2-furoate)]
Terminal t½ (in vivo): about 5 h | bioavailability (inhaled dose compared with IV administration): less than 1% | Excretion in the feces (up to 7 days): 74% | Excretion in the urine (up to 7 days): 8% | solubility in ethyl alcohol ([1]; ethyl alcohol): moderately soluble | solubility in octanol ([1]; octanol): slightly soluble | solubility in water ([1]; water): practically insoluble | metabolism [2]: primarily and extensively metabolized in the liver by the CYP3A4 isozyme
